± gives the expanded uncertainty stated by the source.
Details: Crystal; DTA

Normal melting temperature [°C]	SMILES
168.96 ± 3	COc1ccc([N+](=O)[O-])c(-n2ccnn2)c1[N+](=O)[O-] [1-(3-methoxy-2,6-dinitrophenyl)-1H-1,2,3-triazole]
90.13 ± 3	COc1c([N+](=O)[O-])cc(Cn2ccnn2)cc1[N+](=O)[O-] [1-(4-methoxy-3,5-dinitrobenzyl)-1H-1,2,3-triazole]
